# Results taken from patent US8574563B2 (Bristol-Myers Squibb Company, priority 2006, dated 2013).
# Test system: HCV 1b-377-neo replicon cells
# Assay: HCV replicon assay, HCV 1b-377-neo replicon cells (1b FRET)
# Assay type: cell-based, Hepatitis C virus genotype 1b
# Settings: HCV 1b-377-neo replicon cells; HCV 1b genotype; read-out: EC50 range against HCV 1b (Table 2, Range)
# Method in brief: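 Compounds tested in HCV genotype 1b-377-neo replicon cells with a FRET read-out. Cells resistant to a reference NS5A inhibitor through a Y2065H NS5A mutation were run alongside wild-type cells.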
row,Structure (SMILES),EC50 [nM]
1,"CN(C)[C@@H](C(=O)N1CCC[C@H]1c1nc(-c2ccc(-c3ccc(-c4cn(C)c([C@@H]5CCCN5C(=O)[C@@H](c5ccccc5)N(C)C)n4)cc3)cc2)cn1C)c1ccccc1 (single isomer, unassigned) [151 isomer 2]",100 to 999
2,"COC(=O)N[C@@H](C(=O)N1CCC[C@H]1c1ncc(-c2ccc(-c3ccc(-c4cnc([C@@H]5CCCN5C(=O)c5cnco5)[nH]4)cc3)cc2)[nH]1)c1ccccc1 [Example 72, methyl ((1R)-2-((2S)-2-(5-(4′-(2-((2S)-1-(1,3-oxazol-5-ylcarbonyl)-2-pyrrolidinyl)-1H-imidazol-5-yl)-4-biphenylyl)-1H-imidazol-2-yl)-1-pyrrolidinyl)-2-oxo-1-phenylethy)carbamate]",1 to 99

# Same assay, conditions: Hepatitis C virus, HCV 1b-377-neo replicon cells; HCV 1b genotype; read-out: EC50 range against HCV 1b (Table 2, Range)
row,Structure (SMILES),EC50 [nM]
1,"CN(C)[C@@H](C(=O)N1CCC[C@H]1c1ncc(-c2ccc(-c3ncc(-c4cnc([C@@H]5CCCN5C(=O)[C@@H](c5ccccc5)N(C)C)[nH]4)cn3)cc2)[nH]1)c1ccccc1 [Example 152j-1, (1R)-2-((2S)-2-(5-(2-(4-(2-((2S)-1-((2R)-2-(dimethylamino)-2-phenylacetyl)-2-pyrrolidinyl)-1H-imidazol-5-yl)phenyl)-5-pyrimidinyl)-1H-imidazol-2-yl)-1-pyrrolidinyl)-N,N-dimethyl-2-oxo-1-phenylethanamine]",1 to 99
2,"O=C(N[C@@H](C(=O)N1CCC[C@H]1c1ncc(-c2ccc(-c3ccc(-c4cnc([C@@H]5CCCN5C(=O)[C@H]5CCCO5)[nH]4)cc3)cc2)[nH]1)c1ccccc1)N1CCOCC1 [Example 120, N-((1R)-2-oxo-1-phenyl-2-((2S)-2-(5-(4′-(2-((2S)-1-((2R)-tetrahydro-2-furanylcarbonyl)-2-pyrrolidinyl)-1H-imidazol-5-yl)-4-biphenylyl)-1H-imidazol-2-yl)-1-pyrrolidinyl)ethyl)-4-morpholinecarboxamide]",0.001 to 0.999
3,"CN(C)[C@@H](C(=O)N1CCC[C@H]1c1ncc(-c2ccc(-c3ccc(-c4cnc([C@@H]5CCCN5C(=O)C5(C(F)(F)F)CC5)[nH]4)cc3)cc2)[nH]1)c1ccccc1 [Example 94-30, (1R)-N,N-dimethyl-2-oxo-1-phenyl-2-((2S)-2-(5-(4′-(2-((2S)-1-((1-(trifluoromethyl)cyclopropyl)carbonyl)-2-pyrrolidinyl)-1H-imidazol-5-yl)-4-biphenylyl)-1H-imidazol-2-yl)-1-pyrrolidinyl)ethanamine]",0.001 to 0.999
4,"C[C@H](NC(=O)[C@@H](c1ccccc1)N(C)C)c1ncc(-c2ccc(-c3ccc(-c4cnc([C@@H]5CCCN5C(=O)[C@@H](c5ccccc5)N(C)C)[nH]4)cn3)cc2)[nH]1 [Example 152j-11, (2R)-2-(dimethylamino)-N-((1S)-1-(5-(4-(5-(2-((2S)-1-((2R)-2-(dimethylamino)-2-phenylacetyl)-2-pyrrolidinyl)-1H-imidazol-5-yl)-2-pyridinyl)phenyl)-1H-imidazol-2-yl)ethyl)-2-phenylacetamide]",0.001 to 0.999
5,"CCN(CC)[C@H]1CC[C@@H](C(=O)N2CCC[C@H]2c2ncc(-c3ccc(-c4ccc(-c5cnc([C@@H]6CCCN6C(=O)[C@@H](NC(=O)OC)C(C)C)[nH]5)cc4)cc3)[nH]2)CC1 [cj-71, methyl ((1S)-1-(((2S)-2-(5-(4′-(2-((2S)-1-((cis-4-(diethylamino)cyclohexyl)carbonyl)-2-pyrrolidinyl)-1H-imidazol-5-yl)-4-biphenylyl)-1H-imidazol-2-yl)-1-pyrrolidinyl)carbonyl)-2-methylpropyl)carbamate]",0.001 to 0.999
6,"CN1C[C@H](F)C[C@H]1C(=O)N[C@@H](C(=O)N1CCC[C@H]1c1ncc(-c2ccc(-c3ccc(-c4cnc([C@@H]5CCCN5C(=O)[C@@H]5CCCO5)[nH]4)cc3)cc2)[nH]1)c1ccccc1 [Example 116, (4R)-4-fluoro-1-methyl-N-((1R)-2-oxo-1-phenyl-2-((2S)-2-(5-(4′-(2-((2S)-1-((2S)-tetrahydro-2-furanylcarbonyl)-2-pyrrolidinyl)-1H-imidazol-5-yl)-4-biphenylyl)-1H-imidazol-2-yl)-1-pyrrolidinyl)ethyl)-L-prolinamide]",0.001 to 0.999
7,"CN(C)C(C(=O)N1CCC[C@H]1c1ncc(-c2ccc(-c3ccc(-c4cnc([C@@H]5CCCN5C(=O)[C@@H](c5ccccc5)N(C)C)[nH]4)cc3)cc2)[nH]1)c1ccc(Cl)nc1 (stereo partly drawn) [Example 94-44, 1-(6-chloro-3-pyridinyl)-2-((2S)-2-(5-(4′-(2-((2S)-1-((2R)-2-(dimethylamino)-2-phenylacetyl)-2-pyrrolidinyl)-1H-imidazol-5-yl)-4-biphenylyl)-1H-imidazol-2-yl)-1-pyrrolidinyl)-N,N-dimethyl-2-oxoethanamine]",0.001 to 0.999
8,"CCN(CC)[C@H]1CC[C@@H](C(=O)N2CCC[C@H]2c2ncc(-c3ccc(-c4ccc(-c5cnc([C@@H]6CCCN6C(=O)[C@H]6CCCC[C@H]6NC(=O)OC)[nH]5)cc4)cc3)[nH]2)CC1 [cj-97, methyl ((1R,2S)-2-(((2S)-2-(5-(4′-(2-((2S)-1-((cis-4-(diethylamino)cyclohexyl)carbonyl)-2-pyrrolidinyl)-1H-imidazol-5-yl)-4-biphenylyl)-1H-imidazol-2-yl)-1-pyrrolidinyl)carbonyl)cyclohexyl)carbamate]",0.001 to 0.999
9,"CN(C)[C@@H](C(=O)N1CCC[C@H]1c1ncc(-c2ccc(-c3ccc(-c4cnc([C@@H]5CCCN5C(=O)[C@@H](c5ccccc5)N(C)C)[nH]4)cn3)cc2)[nH]1)c1ccccc1 [Example 132, (1R)-2-((2S)-2-(5-(6-(4-(2-((2S)-1-((2R)-2-(dimethylamino)-2-phenylacetyl)-2-pyrrolidinyl)-1H-imidazol-5-yl)phenyl)-3-pyridinyl)-1H-imidazol-2-yl)-1-pyrrolidinyl)-N,N-dimethyl-2-oxo-1-phenylethanamine]",0.001 to 0.999
10,"C[C@H](C(=O)N1CCC[C@H]1c1ncc(-c2ccc(-c3ccc(-c4cnc([C@@H]5CCCN5C(=O)[C@@H](C)N(C)C)[nH]4)cc3)cc2)[nH]1)N(C)C [Example M8, (2R,2′R)-1,1′-(4,4′-biphenyldiylbis(1H-imidazole-5,2-diyl(2S)-2,1-pyrrolidinediyl))bis(N,N-dimethyl-1-oxo-2-propanamine)]",1000 to 10000
11,"CCN(CC)[C@@H](C(=O)N1CCC[C@H]1c1ncc(-c2ccc(-c3ccc(-c4cnc([C@@H]5CCCN5C(=O)C(C)(C)NC(=O)OC)[nH]4)cc3)cc2)[nH]1)c1ccccc1 [Example M34, methyl (2-((2S)-2-(5-(4′-(2-((2S)-1-((2R)-2-(diethylamino)-2-phenylacetyl)-2-pyrrolidinyl)-1H-imidazol-5-yl)-4-biphenylyl)-1H-imidazol-2-yl)-1-pyrrolidinyl)-1,1-dimethyl-2-oxoethyl)carbamate]",1 to 99
12,"C[C@H]1OC(=O)NC1C(=O)N1CCC[C@H]1c1ncc(-c2ccc(-c3ccc(-c4cnc([C@@H]5CCCN5C(=O)C5NC(=O)O[C@@H]5C)[nH]4)cc3)cc2)[nH]1 (stereo in doubt) [cj-133, (4S,5R,4′S,5′R)-4,4′-(4,4′-biphenyldiylbis(1H-imidazole-5,2-diyl(2S)-2,1-pyrrolidinediylcarbonyl))bis(5-methyl-1,3-oxazolidin-2-one)]",1 to 99
13,CCN(CC)[C@@H](C(=O)N1CCC[C@H]1c1ncc(-c2ccc(-c3ccc(-c4[nH]c([C@@H]5CCCN5C(=O)[C@@H](c5ccccc5)N(CC)CC)nc4C(F)(F)F)cc3)cc2)[nH]1)c1ccccc1 [Example J40],0.001 to 0.999
